Entries after “also recorded” stand apart in the source; their conditions may differ.
Tests used:
HepG2 cells = experiment: alkaline Comet assay, DNA strand breaks; assay type: cell-based; settings: human HepG2 cells, exposure 24 h, 37° C.
Source text: (§1) We recently examined the genotoxicity of NNA in human HepG2 cells as well as its ability to modify both 2-deoxyguanosine (dGuo) and 2-deoxycytodine (dCyt) in vitro. […] In the reaction of NNA with dGuo, several adducts were identified with HPLC-UV spectrum, ESI-MS/MS and NMR. These include 8-oxo-2′-deoxyguanosine (8-oxo-dG), 0^6-methyl-dG, and N^2-methyl-dG. NNA also forms a bulky dG adduct with m/z 455.17 for (M+H)^+ in mass spectrum, which is due to the condensation of NNA and dG with the elimination of H2O and two hydrogen molecules. In addition, NNA causes novel DNA sugar damage, forming […]. […] In addition, the NNA-specific DNA adducts identified can be used as specific biomarkers of THS exposure.
FIGS. 3A and 3B: Genotoxic effect of NNA in human HepG2 cells as measured by the Comet assay. HepG2 cells were exposed to varying doses of NNA dissolved in DMEM medium with/without 10% FBS for 24 h. […] (A) Effect of acute THS and THS+HONO. HepG2 cells were exposed to samples at 37° C. for 24 h. The extent of DNA damage was analyzed by % DNA in tail to total DNA from 90 cells. (B) HepG2 cells were exposed to chronic THS at varying dilutions under identical conditions as above.
(§2) Using the alkaline Comet assay, we examined the potential of NNA to cause DNA strand breaks in cultured human hepatocellular carcinoma (HepG2) cells. […]

2-deoxyguanosine (dGuo) = experiment: reaction of NNA with dGuo in vitro, DNA adduct formation; settings: HPLC-UV, ESI-MS/MS, NMR
Source text: as §1
We discovered that NNA reacts with dGuo (“dG”) and dCyt (“dC”) to form various DNA adducts. […] The chemical structure of this adduct has been proposed and validated using various NMR experiments. Because of its specific structural characteristic, this adduct can serve as a DNA damage “signature” by NNA, thus a potential biomarker for monitoring exposure to thirdhand smoke.
as §2

2-deoxycytidine (dCyt) = experiment: reaction of NNA with dCyt in vitro, adduct formation
Source text: NNA (1-(N-methyl-N-nitrosamino)-1-(3-pyridinyl)-4-butanal) is an important member of the carcinogenic/mutagenic tobacco-specific nitrosamines (TSNAs) and an unique constituent found in the most recently identified health risk called thirdhand smoke (THS). We studied the reactions of NNA with 2-deoxyguanosine (dGuo) and 2-deoxycytidine (dCyt) in vitro with regard to its ability to form stable base adducts, which have not been reported in literature at all. Herein we have identified and characterize potential specific THS biomarkers. We also describe experimental evidence for detrimental effects from exposure to THS, which could be useful for framing and enforcing new policies against indoor smoking.
Herein we describe the first evidence that reaction of NNA with dCyt in vitro results in formation of stable base adducts too, which have not been hereto for been reported in literature.
Using the alkaline Comet assay, we examined the potential of NNA to cause DNA strand breaks in cultured human hepatocellular carcinoma (HepG2) cells. Moreover, the ability of NNA to form DNA adducts with dGuo and dCyt in vitro was investigated and characterized using HPLC-UV, electrospray ionization mass spectrometry (ESI-MS/MS) and NMR. […]

| SMILES | DNA damage / DNA strand breaks (Comet assay) (HepG2 cells) | formation of DNA adducts with dGuo (2-deoxyguanosine (dGuo)) | formation of adducts with dC (2-deoxycytidine (dCyt)) |
| --- | --- | --- | --- |
| CN(N=O)C(CCC=O)c1cccnc1 (stereo not shown) [NNA, 1-(N-methyl-N-nitrosamino)-1-(3-pyridinyl)-4-butanal] | concentration-dependent DNA strand breaks; also recorded: induces DNA damage at low nanomolar concentrations; also recorded: results in DNA strand breaks in exposed cells; also recorded: causes significant DNA damage at nM concentrations | forms multiple DNA adducts in vitro | reacts with dC to form multiple adducts |
| CN(CCCC(=O)c1cccnc1)N=O [NNK, 4-(methylnitrosamino)-1-(3-pyridyl)-1-butanone, reference compound] | induces DNA damage at low nanomolar concentrations; also recorded: causes significant DNA damage at nM concentrations |  |  |
